Data: patent publication US8802638B1, “Flavonoid treatment of glycogen synthase kinase-based disease” (University of South Florida, priority 2007, dated 2014)

Legend:
PS1 = test: Western blot of PS1 C-terminal fragment phosphorylation in SweAPP N2a cells; assay type: cell-based, murine
Procedure: (§1) Cultured cells or mouse brain were lysed in ice-cold lysis buffer described above, and an aliquot corresponding to 50 μg of total protein was electrophoretically separated using 12% Tris-HCl or 16.5% Tris-tricine gels. Electrophoresed proteins were then transferred to PVDF membranes, washed in dH2O, and blocked for 1 hr at ambient temperature in Tris-buffered saline (TBS; Bio-Rad) containing 5% (w/v) non-fat dry milk. After blocking, membranes were hybridized for 1 hr at ambient temperature with various primary antibodies. Membranes were then washed 3× for 5 min each in dH2O and incubated for 1 hr at ambient temperature with the appropriate HRP-conjugated secondary antibody (1:1,000). All antibodies were diluted in TBS containing 5% (w/v) of non-fat dry milk. Blots were developed using the luminol reagent (Pierce Biotechnology). Densitometric analysis was done as previously described using a FluorS Multiimager with Quantity One™ software. Immunoprecipitation was performed for detection of sAPP-α, sAPP-β and Aβ by incubating 200 μg of total protein of each sample with various sequential combinations of 6E10 (1:100) and/or 22C11 (1:100) antibodies overnight with gentle rocking at 4° C., and 10 μL of 50% protein A-Sepharose beads were then added to the sample (1:10; Sigma) prior to gentle rocking for an additional 4 hrs at 4° C. Following washes with 1× cell lysis buffer, samples were subjected to Western blot as described above. Antibodies used for Western blot included the APP-carboxyl-terminal antibody (1:50)), amino-terminal APP antibody (clone 22C11), or 6E10 (1:1,000), or actin antibody (1:1,500; as an internal reference control). γ-secretase activity was quantified in cell lysates using available kits (R&D Systems, Minneapolis, Minn.), based on secretase-specific peptides conjugated to fluorogenic reporter molecules.
The two bands of highest molecular weight, approximately 20 kD and 18 kD in size, represent phosphorylated PS1 CTFs with a smaller 16 kD band representing the more common CTF product indicative of PS1 endoproteolytic cleavage.
To confirm that the 20 kD and 18 kD bands were phosphorylated PS1 isoforms, SweAPP N2a cells were treated with luteolin (20 μM) prior to lysis and cell lysates incubated with calf intestine alkaline phosphatase (CIAP) (Fermentas, Hanover, Md.), to dephosphorylate any potential phosphorylated proteins, to eliminate skewing of electrophorectic mobilities. Following 30 minutes of incubation, the 20 kD band is not evident in the CIAP treated lysates, seen in FIGS. 21(A) through 22, and the 18 kD band reduced while endogenous CTF, 16 kD, appears to accumulate. When compared to lysates incubated with only reaction buffer, phosphorylated residues decrease in a time dependent manner, shown by the 20 kD CTF:16 kD CTF. […] Luteolin affects PS1 phosphorylation and may indicate a means by which γ-secretase activity may be regulated.
To determine if this phenomenon was specifically attributable to luteolin treatment or more generally in regards to GSK-3 inhibition, SweAPP N2a cells were treated with a range of doses of the GSK-3 inhibitor SB-415286 (BIOMOL®, Plymouth Meeting, Pa.). […] FIG. 24(B). GSK-3α and β was successfully knocked-down (>70%, data not shown) with siRNA in SweAPP N2a cells, substantiating the role of GSK-3α in this luteolin-mediated PS1 processing. […]

GSK-3α/β = test: Western blot of phosphorylated GSK-3α/β forms in SweAPP N2a cells; assay type: cell-based, murine; conditions: SweAPP N2a cells co-treated with luteolin or SB-415286 and GF109203X; data not shown
Procedure: (§2) Cultured cells or mouse brain were lysed in ice-cold lysis buffer described above, and an aliquot corresponding to 50 μg of total protein was electrophoretically separated using 12% Tris-HCl or 16.5% Tris-tricine gels. Electrophoresed proteins were then transferred to PVDF membranes, washed in dH2O, and blocked for 1 hr at ambient temperature in Tris-buffered saline (TBS; Bio-Rad) containing 5% (w/v) non-fat dry milk. After blocking, membranes were hybridized for 1 hr at ambient temperature with various primary antibodies. Membranes were then washed 3× for 5 min each in dH2O and incubated for 1 hr at ambient temperature with the appropriate HRP-conjugated secondary antibody (1:1,000). Antibodies were obtained against the amino-terminus and carboxyl-terminus of PS1 (Chemicon, Temecula, Calif.), amino-terminus and carboxyl-terminus of APP (22C11), actin (Roche, Basel, Switzerland), Aβ (6E10, 48G) (Signet Laboratories, Dedham, Mass.), phosphor-GSK3α (ser^21, clone BK202) (Upstate, Lake Placid, N.Y.), phospho-GSK3α/β (pTyr^279/216) (Sigma), phospho-GSK-3β (Ser^9) (Sigma) and total GSK-3α/β (Sigma). All antibodies were diluted in TBS containing 5% (w/v) of non-fat dry milk. Blots were developed using the luminol reagent (Pierce Biotechnology). Densitometric analysis was done as previously described using a FluorS Multiimager with Quantity One™ software (39). […] Antibodies used for Western blot included the APP-carboxyl-terminal antibody (1:50)), amino-terminal APP antibody (clone 22C11), or 6E10 (1:1,000), or actin antibody (1:1,500; as an internal reference control). γ-secretase activity was quantified in cell lysates using available kits based on secretase-specific peptides conjugated to fluorogenic reporter molecules.
The effect luteolin had on a variety of proteins related to and/or required for proper functioning of the γ-secretase complex was evaluated to establish the mechanism whereby luteolin modulates γ-secretase activity and subsequent Aβ generation. […]

PS1-APP association = test: PS1-APP association, immunoprecipitation/Western blot in SweAPP N2a cells; assay type: cell-based, murine; conditions: 20 μM for 4 hrs or siRNA transfection
Procedure: as §1
Cell lysates of luteolin-treated SweAPP N2a cells were immunoprecipitated by PS1 antibody and probed for APP to clarify how phospho-PS1 CTF isoforms may regulate γ-secretase activity, seen in FIGS. 26(A) through 27(B). As illustrated in FIGS. 26(A) and (B), the APP-PS1 association is disrupted by luteolin, SB-415286 treatment, and GSK-3α siRNA. […] Thus, GSK-3α or, more specifically, downstream phosphorylation of the PS1 CTF plays an essential role in regulating the association of γ-secretase complex with its APP substrate.

SweAPP N2a cells = test: APP proteolysis (Aβ ELISA, IP, APP CTF Western blot) in SweAPP N2a cells; assay type: cell-based, murine; conditions: result in words; ELISA/IP/Western blot
Procedure: Cultured cells or mouse brain were lysed in ice-cold lysis buffer described above, and an aliquot corresponding to 50 μg of total protein was electrophoretically separated using 12% Tris-HCl or 16.5% Tris-tricine gels. Electrophoresed proteins were then transferred to PVDF membranes, washed in dH2O, and blocked for 1 hr at ambient temperature in Tris-buffered saline (TBS; Bio-Rad) containing 5% (w/v) non-fat dry milk. After blocking, membranes were hybridized for 1 hr at ambient temperature with various primary antibodies. Membranes were then washed 3× for 5 min each in dH2O and incubated for 1 hr at ambient temperature with the appropriate HRP-conjugated secondary antibody (1:1,000). Antibodies were obtained against the amino-terminus and carboxyl-terminus of PS1 (Chemicon, Temecula, Calif.), amino-terminus and carboxyl-terminus of APP (22C11), actin (Roche, Basel, Switzerland), Aβ (6E10, 48G) (Signet Laboratories, Dedham, Mass.), phosphor-GSK3α (ser^21, clone BK202) (Upstate, Lake Placid, N.Y.), phospho-GSK3α/β (pTyr^279/216) (Sigma), phospho-GSK-3β (Ser^9) (Sigma) and total GSK-3α/β (Sigma). All antibodies were diluted in TBS containing 5% (w/v) of non-fat dry milk. Blots were developed using the luminol reagent (Pierce Biotechnology). Densitometric analysis was done as previously described using a FluorS Multiimager with Quantity One™ software (39). Immunoprecipitation was performed for detection of sAPP-α, sAPP-β and Aβ by incubating 200 μg of total protein of each sample with various sequential combinations of 6E10 (1:100) and/or 22C11 (1:100) antibodies overnight with gentle rocking at 4° C., and 10 μL of 50% protein A-Sepharose beads were then added to the sample (1:10; Sigma) prior to gentle rocking for an additional 4 hrs at 4° C. Following washes with 1× cell lysis buffer, samples were subjected to Western blot as described above. Antibodies used for Western blot included the APP-carboxyl-terminal antibody (1:50)), amino-terminal APP antibody (clone 22C11), or 6E10 (1:1,000), or actin antibody (1:1,500; as an internal reference control). γ-secretase activity was quantified in cell lysates using available kits based on secretase-specific peptides conjugated to fluorogenic reporter molecules.
SweAPP N2a cells and primary neuronal cells derived from Tg2576 mice were treated with varying doses of luteolin to examine luteolin's effect on APP proteolysis. Cellular extracts were collected and analyzed using immunoprecipitation (IP), Western blot, and ELISA. […] See FIGS. 1 through 2(B) and 5 through 6(B). SweAPP N2a and primary Tg2576-derived neuronal cells CTF profiles were analyzed following luteolin treatment to determine at which level luteolin impacts amyloid processing.

TACE, ADAM10, sAPPα = test: non-amyloidogenic APP processing (TACE, ADAM10 maturation, sAPPα release); assay type: cell-based; conditions: data not shown
Excerpt: The presence of phosphorylated PS1 CTFs corresponds with reduction of Aβ generation and accumulation of the β-CTF of APP, as was observed following luteolin treatment. The accumulation β-CTFs following luteolin treatment is a fraction of β-CTF seen after direct γ-secretase inhibitor treatment (data not shown). In view of this finding, selective GSK-3 inactivation is a less toxic, more regulative, substrate-specific mode of γ-secretase inhibition. Earlier studies routinely employed phorbol-12,13-dibutyrate (PDBu), a potent PKC activator, as their phosphorylating agent. Thus, luteolin was tested for similar PKC activation, rather than a GSK-3 inhibitor. […] Additionally, there are no indications GSK-3α inhibition affects non-amyloidogenic processing of APP, since luteolin, SB-415286, and GSK-3α RNAi treatment have no effect on the maturation of TACE, ADAM10, or sAPPα release (data not shown), which are all strongly associated with PKC activation.

γ-secretase = target: T1, γ-secretase (Mus musculus, UniProt P49769); test: fluorometric assay for γ-secretase cleavage activity in SweAPP N2a cell lysates; assay type: cell-based, murine; conditions: relative to untreated control
T1 construct: endogenous in cells; host or cells: SweAPP N2a cells (lysates of treated cells)
Procedure: as §2, with “All antibodies were diluted in TBS containing 5% (w/v) of non-fat dry milk. Blots were developed using the luminol reagent (Pierce Biotechnology).” left out
Due to the implications on γ-secretase activity, luteolin's effect on SweAPP N2a cells was analyzed using a fluorometric assay for γ-cleavage.
Cultured cells or mouse brain were lysed in ice-cold lysis buffer described above, and an aliquot corresponding to 50 μg of total protein was electrophoretically separated using 12% Tris-HCl or 16.5% Tris-tricine gels. […] Densitometric analysis was done as previously described using a FluorS Multiimager with Quantity One™ software. […]

[1] = diosmetin formed from diosmin by intestinal flora; cited from earlier work
Tg2576 mice = conditions: 0.05% diosmin diet for 6 months

Structure (SMILES) | PS1 CTF phosphorylation (phospho-PS1 CTF to PS1 CTF ratio) (PS1) | Aβ1-40, 42 production (SweAPP N2a cells) | γ-secretase cleavage activity (γ-secretase) | further results
CN(C)CCCn1cc(C2=C(c3c[nH]c4ccccc34)C(=O)NC2=O)c2ccccc21 [GF109203X, reference compound] | Minor decreases in 20 kD and 18 kD phospho-PS1 CTF isoforms |  |  | GSK-3 inhibition on co-treatment with PKC inhibitor (GSK-3α/β): no effect on GSK-3 inhibition
O=C1NC(=O)C(c2ccccc2[N+](=O)[O-])=C1Nc1ccc(O)c(Cl)c1 [SB-415286, reference compound] | Alterations in phospho-PS1 CTF:PS1 CTF ratios were similar to prior experiments | congruent decreases in Aβ1-40, 42 generation |  | ratio of APP to actin (full-length APP levels) (PS1-APP association; 6E10 Western blot of lysates): no significant changes; APP-PS1 association (PS1-APP association; IP with anti-PS1 CTF, 6E10 blot): disrupted; maturation of TACE, ADAM10, or sAPPα release (TACE, ADAM10, sAPPα): no effect
O=c1cc(-c2ccc(O)cc2)oc2cc(O)cc(O)c12 [apigenin, reference compound] |  | did not reduce Aβ1-40, 42 production to the same level as luteolin, diosmetin, and diosmin | results were not similar to luteolin | 
COc1ccc(-c2cc(=O)c3c(O)cc(O)cc3o2)cc1O [diosmetin] | just as efficacious as luteolin |  | just as efficacious as luteolin | plasma half-life [1]: > 26 h
COc1ccc(-c2cc(=O)c3c(O)cc(O[C@@H]4O[C@H](CO[C@@H]5O[C@@H](C)[C@H](O)[C@@H](O)[C@H]5O)[C@@H](O)[C@H](O)[C@H]4O)cc3o2)cc1O [diosmin] |  |  |  | Aβ plaque burden (4G8 stained sections, image analysis) (Tg2576 mice): significantly reduced throughout the brain
